Experimental data: US20260217683A1, “PYRIDAZINONE HETEROCYCLIC COMPOUND MYOSIN II INHIBITOR AND USE THEREOF” (Xizang Haisco Pharmaceutical Co., Ltd., priority 2023, published 2026)

Tests used:
[1] = target: T1, hERG potassium ion channel (Homo sapiens, UniProt Q12809); assay: Effect on hERG potassium ion channel (manual patch-clamp, CHO cells); type: cell-based; details: CHO cells stably expressing hERG, whole cell patch-clamp; read-out: IC50 of the inhibitory effect on hERG potassium channel current
T1 construct: expressed in transfected cells
T1 sequence (Q12809 whole entry): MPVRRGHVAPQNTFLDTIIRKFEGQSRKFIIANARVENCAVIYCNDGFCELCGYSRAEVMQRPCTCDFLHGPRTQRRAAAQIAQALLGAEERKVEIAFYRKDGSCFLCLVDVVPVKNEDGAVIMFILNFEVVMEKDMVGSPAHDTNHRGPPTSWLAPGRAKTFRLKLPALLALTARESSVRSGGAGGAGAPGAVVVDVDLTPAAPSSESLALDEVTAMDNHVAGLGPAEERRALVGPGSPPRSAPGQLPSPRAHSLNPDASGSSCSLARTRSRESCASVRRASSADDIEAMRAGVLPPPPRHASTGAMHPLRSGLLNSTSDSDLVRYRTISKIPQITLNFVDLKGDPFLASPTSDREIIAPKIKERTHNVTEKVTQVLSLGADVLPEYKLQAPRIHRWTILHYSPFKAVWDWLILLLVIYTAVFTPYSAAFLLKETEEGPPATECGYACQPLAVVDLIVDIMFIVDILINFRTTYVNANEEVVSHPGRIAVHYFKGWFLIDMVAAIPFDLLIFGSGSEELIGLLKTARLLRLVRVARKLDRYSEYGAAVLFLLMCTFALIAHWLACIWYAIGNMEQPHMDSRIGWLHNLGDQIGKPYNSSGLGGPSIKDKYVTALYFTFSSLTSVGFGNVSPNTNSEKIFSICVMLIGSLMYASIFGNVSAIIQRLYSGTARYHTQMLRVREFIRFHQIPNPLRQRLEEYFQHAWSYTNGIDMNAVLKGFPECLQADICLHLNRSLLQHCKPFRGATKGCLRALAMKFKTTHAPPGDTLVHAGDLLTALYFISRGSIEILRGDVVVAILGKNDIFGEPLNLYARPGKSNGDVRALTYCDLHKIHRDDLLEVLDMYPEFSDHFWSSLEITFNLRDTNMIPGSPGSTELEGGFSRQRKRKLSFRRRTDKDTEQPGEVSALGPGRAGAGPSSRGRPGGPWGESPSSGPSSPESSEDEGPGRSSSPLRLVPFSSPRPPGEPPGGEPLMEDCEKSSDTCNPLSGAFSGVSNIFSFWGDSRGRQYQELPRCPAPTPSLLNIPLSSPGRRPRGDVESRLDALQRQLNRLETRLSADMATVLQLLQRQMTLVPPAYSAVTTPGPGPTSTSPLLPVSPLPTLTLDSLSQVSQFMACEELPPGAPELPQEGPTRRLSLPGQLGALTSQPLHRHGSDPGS
Text: 1. Experimental platform: electrophysiological manual patch-clamp system
2. Cell line: Chinese hamster ovary (CH—O) cell lines stably expressing hERG potassium ion channel
3. Experimental method: in CHO (Chinese Hamster Ovary) cells stably expressing hERG potassium channel, whole cell patch-clamp technique was used to record hERG potassium channel current at room temperature. The glass microelectrode was made of a glass electrode blank (BF150-86-10, Sutter) by a puller. The tip resistance after filling the liquid in the electrode was about 2-5 MQ. The glass microelectrode can be connected to the patch-clamp amplifier by inserting the glass microelectrode into an amplifier probe. The clamping voltage and data recording were controlled and recorded by the pClamp 10 software through a computer. The sampling frequency was 10 kHz, and the filtering frequency was 2 kHz. After the whole cell records were obtained, the cells were clamped at −80 mV, and the step voltage that induced the hERG potassium current (IhERG) was depolarized from −80 mV to +20 mV for 2 s, then repolarized to −50 mV, and returned to −80 mV after 1 s. This voltage stimulation was given every 10 s, and the administration process was started after the hERG potassium current was confirmed to be stable (at least 1 minute). The compound was administered for at least 1 minute at each test concentration, and at least 2 cells (n≥2) were tested at each concentration.
4. Data processing: Data analysis processing was carried out by using pClamp 10, GraphPad Prism 5 and Excel software. The inhibition degree of hERG potassium current (peak value of hERG tail current induced at −50 mV) at different compound concentrations was calculated by the following formula:
[formula] • where Inhibition % represents the percentage of inhibition of hERG potassium current by the compound, and I and Io represent the amplitude of hERG potassium current after and before the administration, respectively.
Compound IC50 was calculated using GraphPad Prism 5 software by fitting according to the following equation: […]
Among the equation, X represents the Log value of the tested concentration of the test sample, Y represents the inhibition percentage at the corresponding concentration, and Bottom and Top represent the minimum and maximum inhibition percentage, respectively.

B10-Dmd-KO (Mdx) mice = assay: PK/PD detection of mouse model with Dmd (Mdx) gene mutation, plasma CK; type: in vivo; details: oral
Text: Experimental objective: Bl0-Dmd-KO (Mdx) mice are DMD function-deficient mice caused by frameshift mutations in the Dmd gene. […] This study has investigated the effects on CK and TNNI2 in the plasma of Mdx mice upon administration of compounds.
Experimental animal: B10-Dmd-KO (C57BL/10ScSnJGpt-Dmdem3Cd4/Gpt), male, 5-7 weeks old, weight 28-30 g, supplier. Gempharmatech Co., Ltd.;
• 1) Running training (D-5): Mdx mice underwent running training in batches. The training parameters were set as three time periods, i.e., the initial speed of 4 m/min for 2 min, then 8 m/min for 8 min, and finally 12 m/min for 30 min, a total of 40 min; • 2) Gripping strength test (D-2): each round was measured three times, and three rounds were performed; • 3) Grouping (DO): the animals were anesthetized by inhalation of isoflurane (concentration: 5%, gas flow rate: 1 L/min), and then a capillary tube was used to collect blood (about 150 μL) via orbital venous sinus into a 0.6 mL centrifuge tube containing EDTA anticoagulant, the plasma wad separated, and the CK value was detected, which was used as the basic value for grouping; • 4) Administration, grasping, and blood collection (D1): The compounds were dissolved in the vehicle 5% DMA+5% HS-15+90% Saline, then orally administered to the mice, and then the grip strength test was conducted (three tests per round for three rounds). […] A capillary tube was used to collect blood (>300 μL) via orbital venous sinus into a 0.6 mL centrifuge tube containing EDTA anticoagulant, and then the animals were euthanized to collect the tibialis anterior muscle (left leg), soleus muscle (both legs) and cardiac muscle, which were weighed and recorded, placed in a homogenization tube and quickly frozen in liquid nitrogen, then stored at −80° C.
Sample processing: After the whole blood anticoagulated with EDTA was centrifuged at 3000 rpm and 4° C. for 10 min, the […] was collected and subpackaged. The separated […] was subjected to a biochemical analyzer (Fully automatic biochemical analyzer Roche C311) to detect the CK value and TNN12 value (Mouse TNNI2 Elisa Kit, ABBEXA, E2207370Y); The […] concentration of the compound and the drug concentration in tibialis anterior muscle, soleus muscle and cardiac muscle were measured by LC/MS instrument.

[2] = Pharmacokinetic experiment in mice; type: in vivo; details: male, C57, po; mouse plasma, i.g. (10 mg/kg)
Experimental: (§1) 1. Experimental animals: Male C57 mice, 22-25 g, 6 mice/compound. Purchased from Chengdu Ddossy Experimental Animals Co., Ltd.
(§2) 2. Experimental design: On the day of the experiment, 12 C57 mice were randomly grouped according to their body weight. The animals were fasted with water available for 12 to 14 h one day before the administration and were fed 4 h after the administration.
Before and after the administration, 0.06 mL of blood was taken from the orbit of the animals under isoflurane anesthesia and placed in an EDTAK2 centrifuge tube. The blood was centrifuged at 5000 rpm and 4° C. for 10 min to collect the plasma. The blood collection time points for the intravenous group and intragastric administration group were: 0 m, 5 m, 15 min, 30 min, 1 h, 2 h, 4 h, 7 h and 24 h. Before analysis and detection, all samples were stored at −80° C., and a quantitative analysis of samples was performed using LC-MS/MS.

[3] = Pharmacokinetic experiment in mouse muscle tissue (tibialis anterior / plasma); type: in vivo, C57 mice; details: male, C57, tibialis anterior muscle / plasma, oral, intragastric 10 mg/kg, read-out: Ratio = Tibialis anterior Conc./Plasma Conc.
Experimental: as §1
as §2, with “experiment,” for “experiment, 12”, “administration. Administration was performed as per Table 10.1.” for “administration.”

[4] = 10 mpk, QD administration for 7 days

Structure (SMILES)	IC50 [1]	half-life [2]	Kp at 6 h [3]	Kp at 24 h [3]	also measured
O=c1ccc(-c2cnc(OCC(F)(F)F)nc2)nn1Cc1ccc2c(c1)CCC2 [Compound 57]	> 40 µM				Inhibition rate of CK values (sampled 24 h after (last) dose) (B10-Dmd-KO (Mdx) mice; 10 mpk single administration): 108.2%
O=C1CCc2ccc(Cn3nc(-c4cnc(OCC(F)(F)F)nc4)ccc3=O)cc21 [Compound 88]		102 h	63.5	81.1	AUC(0-t) [2]: 2320 ng·h/mL; Cmax [2]: 324 ng/mL; Inhibition rate of CK values (sampled 24 h after (last) dose) (B10-Dmd-KO (Mdx) mice; [4]): 91.6%
O=C1CCc2ccc(Cn3nc(-c4cnc(OCC(F)F)nc4)ccc3=O)cc21 [Compound 131]		91.1 h	136	158	Inhibition rate of CK values (sampled 24 h after (last) dose) (B10-Dmd-KO (Mdx) mice; [4]): 94.1%
O=C1CCc2ccc(Cn3nc(-c4cnc(OC5CC(F)(F)C5)nc4)ccc3=O)cc21 [Compound 141]			89.9	116	
O=C1CCc2ccc(Cn3nc(-c4cnc(O[C@@H]5CCOC5)nc4)ccc3=O)cc21 [Compound 149]		52.3 h	113	171	
O=C1CCc2ccc(Cn3nc(-c4cnc(O[C@H]5CCOC5)nc4)ccc3=O)cc21 [Compound 150]	> 40 µM	40.7 h	82.2	140	
N#CC1(COc2ncc(-c3ccc(=O)n(Cc4ccc5c(c4)C(=O)CC5)n3)cn2)CC1 [Compound 158]	> 40 µM				
O=C1CCc2ccc(Cn3nc(-c4cnc(OC5COCC5(F)F)nc4)ccc3=O)cc21 (stereo not drawn) [Compound 164]	> 40 µM				
O=C1CCc2c(F)cc(Cn3nc(-c4cnc(O[C@H]5CCOC5)nc4)ccc3=O)cc21 [Compound 165]	> 40 µM				
